# Results published in patent publication US20020055528A1, “Artemisinin analogs having antimalarial, antiproliferative, and antitumor activities and chemoselective methods of making the same” (priority 1999, published 2002).
# “Also recorded” adds a separate entry of the source.
# Tests used:
# Type in all cases: cell-based
# SK-OV-3 = assay: NCI 60 cell line screen (SRB), Ovarian Cancer
# HCT-116 = assay: NCI 60 cell line screen (SRB), Colon Cancer
# UACC-257 = assay: NCI 60 cell line screen (SRB), Melanoma
# HCT-15 = assay: NCI 60 cell line screen (SRB), Colon Cancer
# OVCAR-4 = assay: NCI 60 cell line screen (SRB), Ovarian Cancer
# PC-3 = assay: NCI 60 cell line screen (SRB), Prostate Cancer
# A498 = assay: NCI 60 cell line screen (SRB), Renal Cancer
# 60 cell line panel = assay: NCI 60 cell line screen (SRB), whole panel
# Protocol: The screening assay is performed on 96-well microtitre plates. Relatively high initial inoculation densities are used, in order to permit measurement of “time-zero” values and to enhance the screen's ability to detect and provide some differentiation between antiproliferative and cytotoxic response parameters. […] The inoculated microtitre plates are pre-incubated for 24 hours at 37θC prior to drug additions. The five drug dilutions tested routinely range from 10^−4 to 10^−8 molar. Higher or lower concentration ranges may be selected on a nonroutine basis if appropriate solubility and/or prior biological information or other screening data so dictate. Duplicate wells are prepared for all concentrations, (concentration is often denoted by placing brackets around a number); “time-zero” and “no drug” controls are also provided for each test. The minimum amount of compound required for a one-time evaluation in the routine screen can be calculated from the knowledge that each test requires a total of approximately 40 ml (0.04 liter) of cell culture medium containing the highest desired drug concentration. Thus, the amount (grams) of sample required (assuming an upper test concentration limit of 10^−4 M) is: molecular weight of compound×[…]. After a 48 hour incubation (37θC) with the test compound, the cells are fixed in situ to the bottoms of the microtitre wells by addition of 50 ul of either 50% trichloroacetic acid (for adherent cell lines) or 80% trichloroacetic acid (for settled cell suspension lines), followed by incubation for 60 minutes at 4θC. The cellular protein in each well is assayed using a sulforhodamine B (SRB) stain procedure. Briefly, after discarding the supernatants, the microtitre plates are washed 5 times with deionized water and air-dried. One hundred microliters of SRB solution (0.4% w/v in 1% acetic acid) is added to each microtitre well and incubated for 10 minutes at room temperature. Unbound SRB is removed by washing 5 times with 1 % acetic acid. The plates are air-dried, the bound stain is solubilized with Tris buffer, and the optical densities read at 515 nm. SRB is a bright pink anionic dye which, in dilute acetic acid, binds electrostatically to the basic amino acids of TCA-fixed cells. Cryopreserved master stocks of all the lines are maintained, and cultures used for screening are replaced from the master stock after no more than twenty passages in the screening laboratory. The cell line panel consists of 60 lines, organized into nine, disease-related subpanels including leukemia, non-small-cell lung cancer, colon, CNS, melanoma, ovarian, renal, prostate and breast cancers.
# The response parameters G150 and LC50 are interpolated values representing the concentrations at which the percentage growth (PG) is +50 and −50, respectively:
# GI50 is the concentration for which the PG=+50. At this value the increase from time tzero, in the number or mass of cells in the test well is only 50% as much as the corresponding increase in the control well during this period of the experiment, see Table II. A drug effect of this intensity is interpreted as primary growth inhibition.
# TGI is the concentration for which PG=0. At this value the number or mass of cells in the well at the end of the experiment equals the number or mass of cells in the well at time tzero, see Table III. A drug effect of this intensity is regarded as cytostasis.
# LC50 is the concentration for which the PG=−50. At this value, the number or mass of cells in the test well at the end of the experiment is half that at time tzero, see Table IV. This is interpreted as cytotoxicity.
# NCI-H23 = assay: NCI 60 cell line screen (SRB), Non-Small Cell Lung Cancer
# K-562 = assay: NCI 60 cell line screen (SRB), Leukemia
smiles,measurement,setting,value
CC1=C(C=Cc2cccc(C=CC3=C(C)C4CCC(C)C5CCC6(C)OOC45C(O3)O6)c2)OC2OC3(C)CCC4C(C)CCC1C24OO3 (stereo not drawn) [VII-h],Log10TGI,SK-OV-3; PG=0,>−4.00 log10M
same,Log10GI50,"SK-OV-3; Table IV (LC50, PG=−50)",>−4.00 log10M
same,Log10TGI,HCT-116; PG=0,−5.38 log10M
same,"Log10 GI50 (PG=+50) or Log10 LC50 (PG=−50), as given per row condition",HCT-116; PG=+50,−7.53 log10M
same,"Log10 GI50 (PG=+50) or Log10 LC50 (PG=−50), as given per row condition","HCT-116; Table IV (LC50, PG=−50)",>−4.00 log10M
same,Log10TGI,UACC-257; PG=0,>−4.00 log10M
same,Log10 GI50 (PG=+50) or Log10 LC50 (PG=−50),UACC-257; PG=+50,−7.21 log10M
same,Log10 GI50 (PG=+50) or Log10 LC50 (PG=−50),"UACC-257; Table IV (LC50, PG=−50)",>−4.00 log10M
same,Log10TGI,HCT-15; PG=0,>−4.00 log10M
same,"log10 GI50 (PG=+50) or LC50 (PG=−50), per row condition",HCT-15; PG=+50,−7.39 log10M
same,"log10 GI50 (PG=+50) or LC50 (PG=−50), per row condition","HCT-15; Table IV (LC50, PG=−50)",>−4.00 log10M
same,Log10GI50,"OVCAR-4; OVCAR-4, PG=+50",−7.51 log10M
same,Log10TGI,"OVCAR-4; OVCAR−4, PG=0",−6.31 log10M
same,Log10GI50,"OVCAR-4; Table IV (LC50, PG=−50), OVCAR−4",>−4.00 log10M
same,Log10TGI,PC-3; PG=0,>−4.00 log10M
same,Log10 GI50 (PG=+50) or LC50 (PG=−50),PC-3; PG=+50,−7.70 log10M
same,Log10 GI50 (PG=+50) or LC50 (PG=−50),"PC-3; Table IV (LC50, PG=−50)",>−4.00 log10M
same,Log10TGI,A498; PG=0,>−4.00 log10M
same,Log10GI50,A498; PG=+50,−6.29 log10M
same,Log10GI50,"A498; Table IV (LC50, PG=−50)",>−4.00 log10M
same,MG MID of Log10GI50 (Table IV),"60 cell line panel; Table IV (LC50), mean over the panel",−4.01 log10M
same,Delta of Log10GI50 (Table IV),"60 cell line panel; Table IV (LC50), panel summary",0.43
same,Range of Log10GI50 (Table IV),"60 cell line panel; Table IV (LC50), panel summary",.44
same,"potency in words, compared with artemisinin and paclitaxel","60 cell line panel; Tables II, III and IV",in most instances are as potent and in some instances more potent than paclitaxel; also recorded: more potent than artemisinin and equivalent to and in many instances higher in potency than paclitaxel
same,MG MID of Log10GI50,60 cell line panel; mean over the panel,−7.03 log10M
same,MG MID of Log10TGI,60 cell line panel; mean over the panel,−4.61 log10M
same,Delta of Log10GI50,60 cell line panel; panel summary,0.97
same,Delta of Log10TGI,60 cell line panel; panel summary,2.62
same,Range of Log10GI50,60 cell line panel; panel summary,4.00
same,Range of Log10TGI,60 cell line panel; panel summary,3.23
same,Log10TGI,NCI-H23; PG=0,>−4.00 log10M
same,log10 GI50 or LC50 (see conditions),NCI-H23; PG=+50,−6.35 log10M
same,log10 GI50 or LC50 (see conditions),"NCI-H23; Table IV (LC50, PG=−50)",>−4.00 log10M
same,Log10TGI,K-562; PG=0,−7.70 log10M
same,Log10GI50,K-562; PG=+50,−7.70 log10M
same,Log10GI50,"K-562; Table IV (LC50, PG=−50)",>−4.00 log10M
